Earlier results in article PMC3547157 (Journal of the American Chemical Society, 2012).

Molecular target: T1, COX-2 enzyme (Homo sapiens, UniProt P35354)
T1 sequence (P35354 18-604): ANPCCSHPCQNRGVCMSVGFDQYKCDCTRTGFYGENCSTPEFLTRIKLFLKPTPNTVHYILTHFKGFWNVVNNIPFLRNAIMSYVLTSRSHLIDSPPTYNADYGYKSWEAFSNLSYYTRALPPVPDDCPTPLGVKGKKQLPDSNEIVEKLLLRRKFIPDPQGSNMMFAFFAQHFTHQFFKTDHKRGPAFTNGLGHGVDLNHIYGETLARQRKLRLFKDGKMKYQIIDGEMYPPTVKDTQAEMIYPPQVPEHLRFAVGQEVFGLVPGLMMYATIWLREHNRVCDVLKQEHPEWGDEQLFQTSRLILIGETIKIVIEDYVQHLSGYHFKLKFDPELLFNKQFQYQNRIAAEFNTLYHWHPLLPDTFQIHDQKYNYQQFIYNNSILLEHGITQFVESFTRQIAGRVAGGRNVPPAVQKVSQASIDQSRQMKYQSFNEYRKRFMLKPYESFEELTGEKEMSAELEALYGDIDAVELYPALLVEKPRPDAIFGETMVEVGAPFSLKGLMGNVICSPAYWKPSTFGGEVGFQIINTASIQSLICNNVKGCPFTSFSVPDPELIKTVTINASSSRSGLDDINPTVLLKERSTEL
Conditions: read-out: reported IC50 of naproxen to COX-2; literature values

Question: Which IC50 does the source give for `COc1ccc2cc([C@H](C)C(=O)O)ccc2c1` [naproxen] here?
Answer: 2 to 28.4 µM
